The values below come from US10975048B2, “Composition of 1,3,4-selenadiazole containing compounds with pharmacological activity” (HANGZHOU JENNIFER BIOTECH CO., LTD, priority 2015, dated 2021).

Data set [1] addresses GDH (Homo sapiens, UniProt P00367). The experiment in a line: GDH inhibition IC50. Format: biochemical.
Data set [2] has as its target T1, KGA (Homo sapiens, UniProt O94925).
T1 sequence (O94925 55-669): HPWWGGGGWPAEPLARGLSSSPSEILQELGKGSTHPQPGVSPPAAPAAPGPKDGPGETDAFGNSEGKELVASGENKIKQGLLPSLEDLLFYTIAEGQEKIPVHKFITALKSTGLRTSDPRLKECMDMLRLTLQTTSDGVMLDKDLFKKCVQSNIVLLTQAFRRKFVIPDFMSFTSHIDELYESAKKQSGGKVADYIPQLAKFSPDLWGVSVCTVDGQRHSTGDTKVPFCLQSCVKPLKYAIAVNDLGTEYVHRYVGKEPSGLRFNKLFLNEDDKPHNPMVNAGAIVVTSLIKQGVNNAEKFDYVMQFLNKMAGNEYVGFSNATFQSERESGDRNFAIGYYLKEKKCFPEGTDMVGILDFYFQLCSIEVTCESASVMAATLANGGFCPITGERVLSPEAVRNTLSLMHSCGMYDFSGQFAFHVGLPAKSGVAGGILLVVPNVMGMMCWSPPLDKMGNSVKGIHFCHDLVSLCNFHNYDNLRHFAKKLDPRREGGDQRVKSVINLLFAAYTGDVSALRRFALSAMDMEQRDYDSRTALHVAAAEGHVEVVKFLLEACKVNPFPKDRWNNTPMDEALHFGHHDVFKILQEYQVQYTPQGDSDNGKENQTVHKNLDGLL
The experiment in a line: KGA inhibition IC50. The class given is biochemical. An excerpt:
(§1) The molecular structure of specific compounds is described as follows: […]

Data set [3] has as its system A 549 lung cancer cells. Description: Inhibition of A549 lung cancer cells. The class given is cell-based. The settings on record: for A549 Max-INH: maximal inhibition; for IC50: Homo sapiens.
Source text: as §1

[4] abbreviates: A549 cells, read-out: A549 IC50.

Molecules are shown by their SMILES. Where two headings read alike, the source gives them in different places. A value given as a limit tells only on which side of the number the result lay.

In general, melting point refers to the temperature of the solid-liquid transition. For orientation: IC50 means the concentration at which inhibition is half-maximal.

Sequence of GDH (P00367 54-558): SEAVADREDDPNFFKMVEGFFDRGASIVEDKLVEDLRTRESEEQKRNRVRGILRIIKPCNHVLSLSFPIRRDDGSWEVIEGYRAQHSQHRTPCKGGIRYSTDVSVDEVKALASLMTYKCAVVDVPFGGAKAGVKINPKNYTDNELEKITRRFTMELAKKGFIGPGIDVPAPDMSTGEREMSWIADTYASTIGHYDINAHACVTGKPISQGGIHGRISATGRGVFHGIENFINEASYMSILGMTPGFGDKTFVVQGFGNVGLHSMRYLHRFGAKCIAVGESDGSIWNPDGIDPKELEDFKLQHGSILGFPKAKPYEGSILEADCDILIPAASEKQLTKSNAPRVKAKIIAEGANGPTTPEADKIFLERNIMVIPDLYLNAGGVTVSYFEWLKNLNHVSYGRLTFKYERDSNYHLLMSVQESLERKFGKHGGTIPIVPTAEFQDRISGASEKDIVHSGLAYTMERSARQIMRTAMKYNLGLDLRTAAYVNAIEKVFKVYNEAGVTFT

In the case of `c1ccc(Nc2nnc(Cc3nnc(Nc4ccccc4)[se]3)[se]2)cc1`, the melting point fell in the range of 130 to 132 °C.

`c1ccc(Nc2nnc(CCc3nnc(Nc4ccccc4)[se]3)[se]2)cc1` came in with a melting point of 160 to 161 °C.

For the compound `c1ccc(Nc2nnc(CCCc3nnc(Nc4ccccc4)[se]3)[se]2)cc1`, the melting point lay within 198 to 201 °C.

For the compound `c1ccc(Nc2nnc(CCCCCc3nnc(Nc4ccccc4)[se]3)[se]2)cc1`, the melting point was in the range of 165 to 171 °C.

In the case of `ClCCc1nnc(Nc2ccccc2)[se]1`, the melting point is 109 to 110 °C.

`ClCCc1nnc(NCc2ccccc2)[se]1` gave a melting point of 109 to 110 °C.

The compound `ClCCc1nnc(NCCc2ccccc2)[se]1` registered a melting point of 109 to 110 °C.

`N=C(N)NCc1nnc(Nc2ccccc2)[se]1` had a melting point of 109 to 110 °C.

In turn, `c1ccc(Nc2nnc(CCSCCc3nnc(Nc4ccccc4)[se]3)[se]2)cc1` displayed a melting point of 172 to 174 °C.

On to `Cn1cc(CC(=O)Nc2nnc(CCSCCc3nnc(N)[se]3)[se]2)c2ccccc21`, for which the IC50 was over 10000 nM in data set [1], 110 nM in data set [2] and 2050 nM in data set [3] (setting [4]). The “A549 Max-INH” value in data set [3] (A549 cells) worked out at 84%.

For `Cn1cc(CC(=O)Nc2nnc(CCSCCc3nnc(N)s3)s2)c2ccccc21`, the IC50 in data set [1] is over 10000 nM; in data set [2] (read-out: KGA IC50), 140 nM; in data set [3] (setting [4]), 9700 nM. Moreover, the “A549 Max-INH” value in data set [3] (A549 cells) came out at 55%.

Consider `Cn1cc(CC(=O)Nc2nnc(CCSCCc3nnc(NC(=O)Cc4cn(C)c5ccccc45)[se]3)[se]2)c2ccccc21`, for which the concentration for half-maximal inhibition (IC50) in data set [1] was over 10000 nM; in data set [2] (read-out: KGA IC50) it was 27 nM; in data set [3] (setting [4]), 160 nM. In addition, the “A549 Max-INH” value in data set [3] (A549 cells) is given as 90%.

On to `Cn1cc(CC(=O)Nc2nnc(CCSCCc3nnc(NC(=O)Cc4cn(C)c5ccccc45)s3)s2)c2ccccc21`, for which the IC50 in data set [1] was over 10000 nM; in data set [2] (read-out: KGA IC50) it was 280 nM; in data set [3] (setting [4]), 820 nM. For the same compound, in data set [3] (A549 cells), the “A549 Max-INH” value is 80%.

For `Cn1ccc(CC(=O)Nc2nnc(CCSCCc3nnc(N)[se]3)[se]2)c1`, the half-inhibitory concentration (IC50) in data set [1] was over 10000 nM; in data set [2], 210 nM; in data set [3] (setting [4]), over 10000 nM. Besides, the “A549 Max-INH” value in data set [3] (A549 cells) is 40%.

For `Cn1ccc(CC(=O)Nc2nnc(CCSCCc3nnc(N)s3)s2)c1`, the figures for the concentration for half-maximal inhibition (IC50) in data set [1], in data set [2] (read-out: KGA IC50) and in data set [3] (setting [4]) were over 10000 nM, 570 nM and over 10000 nM, respectively. Also, the “A549 Max-INH” value in data set [3] (A549 cells) worked out at 0%.

Take `Cn1ccc(CC(=O)Nc2nnc(CCSCCc3nnc(NC(=O)Cc4ccn(C)c4)[se]3)[se]2)c1`: the results for the IC50 in data set [1], in data set [2] (read-out: KGA IC50) and in data set [3] (setting [4]) were over 10000 nM, 60 nM and 3100 nM, respectively. For the same compound, in data set [3] (A549 cells), the “A549 Max-INH” value is recorded as 91%.

Take `Cn1ccc(CC(=O)Nc2nnc(CCSCCc3nnc(NC(=O)Cc4ccn(C)c4)s3)s2)c1`: the IC50 in data set [1] was over 10000 nM; in data set [2] (read-out: KGA IC50), 130 nM; in data set [3] (setting [4]), 6500 nM. Moreover, in data set [3] (A549 cells), the “A549 Max-INH” value was 80%.

Regarding `Nc1nnc(CCSCCc2nnc(NC(=O)Cc3ccccc3)[se]2)[se]1`, the values for the IC50 in data set [1], in data set [2] and in data set [3] (setting [4]) were over 10000 nM, 1400 nM and 6300 nM, respectively. Also, the “A549 Max-INH” value in data set [3] (A549 cells) was 62%.

Consider `O=C(Cc1ccccc1)Nc1nnc(CCSCCc2nnc(NC(=O)Cc3ccccc3)[se]2)[se]1`, for which the IC50 in data set [1] is over 10000 nM; in data set [2] (read-out: KGA IC50), 60 nM; in data set [3] (setting [4]) it was 300 nM. The “A549 Max-INH” value in data set [3] (A549 cells) was 66%.

For `O=C(Cc1ccccc1)Nc1nnc(CCSCCc2nnc(NC(=O)Cc3ccccc3)s2)s1`, the “A549 Max-INH” value in data set [3] (A549 cells) is 75%. Besides, the 50% inhibitory concentration (IC50) in data set [3] (setting [4]) stood at 870 nM.

As to `Nc1nnc(CCSCCc2nnc(NC(=O)C34CC5CC(CC(C5)C3)C4)[se]2)[se]1`, the IC50 in data set [1] was over 10000 nM; in data set [2] it was 4000 nM; in data set [3] (setting [4]) it was over 10000 nM. In data set [3] (A549 cells), the “A549 Max-INH” value stood at 17%.

`O=C(Nc1nnc(CCSCCc2nnc(NC(=O)C34CC5CC(CC(C5)C3)C4)[se]2)[se]1)C12CC3CC(CC(C3)C1)C2`: the 50% inhibitory concentration (IC50) was over 10000 nM in data set [1], 1900 nM in data set [2] and over 10000 nM in data set [3] (setting [4]). For the same compound, the “A549 Max-INH” value in data set [3] (A549 cells) amounted to 17%.

As for `O=C(Cc1cccc(OC(F)(F)F)c1)Nc1ccc(CCCCc2nnc(NC(=O)Cc3ccccn3)[se]2)nn1`, the 50% inhibitory concentration (IC50) in data set [1] is over 10000 nM; in data set [2] (read-out: KGA IC50), 1 nM; in data set [3] (setting [4]), 17 nM. In addition, the “A549 Max-INH” value in data set [3] (A549 cells) was 77%.

Turning to `O=C(Cc1cccc(OC(F)(F)F)c1)Nc1ccc(CCCCc2nnc(NC(=O)Cc3ccccn3)s2)nn1`, the half-maximal inhibitory concentration (IC50) in data set [1] is over 10000 nM; in data set [3] (A549, read-out: A549 IC50), 40 nM. Besides, the “A549 Max-INH” value in data set [3] (A549 cells) is recorded as 70%.

`Cn1cc(CC(=O)Nc2nnc(CCCCc3ccc(NC(=O)Cc4cccc(OC(F)(F)F)c4)nn3)[se]2)c2ccccc21`: the IC50 in data set [1] is over 10000 nM; in data set [2] (read-out: KGA IC50), 1 nM; in data set [3] (setting [4]), 17 nM. Also, the “A549 Max-INH” value in data set [3] (A549 cells) was 90%.

As to `COc1ccc2c(c1)c(CC(=O)Nc1nnc(CCCCc3ccc(NC(=O)Cc4cccc(OC(F)(F)F)c4)nn3)[se]1)cn2C`, the IC50 in data set [1] is over 10000 nM; in data set [2] (read-out: KGA IC50), 5 nM; in data set [3] (setting [4]), 10 nM. Also, the “A549 Max-INH” value in data set [3] (A549 cells) was 90%.
